For one series, the system named is RSV strain A2. The series can be described thus: standard plaque reduction assay for anti-RSV activity. The conditions noted are these: for pIC50: human respiratory syncytial virus, HEp-2, read-out: IC50 (RSV); for SI (CC50/IC50): calculated selectivity index, HEp-2 cells.
Series [1] can be described thus: cell viability assay using tetrazolium salt (MTS). To be noted: human. How it is done: The cell viability assay using tetrazolium salt (MTS) was also performed in HEp-2 cells.
The subject of series [2] is RSV. Description: plaque titration assay of extracellular and cell-associated virus yield. To be noted: HEp-2 cells, MOI of 3, compound at 0.2 µM. In kind it is cell-based. How it is done:
The titer of extracellular (EX) and cell-associated (CA) RSV after incubation in Hep-2 cells at a multiplicity of infection (MOI) of 3 was determined by a plaque titration assay. Infected cells were harvested by scraping into fresh supernatant medium and then subjected to a rapid freeze-thaw cycle at -80 °C ethanol and a 37 °C water bath, respectively, to release infectious virus.

Series [3] has as its system RSV. Description: time-of-addition study of antiviral effect. In kind it is cell-based. To be noted: HEp-2 cells, compound at 0.2 µM added from -1h to 6h relative to infection. How it is done: A time-of-addition study was performed using the compounds of Examples 25 and 61.

pIC50: −log10 of the molar value.

For `CC(=O)Nc1nc(C)c(-c2ccc(Cl)c(S(=O)(=O)NCCO)c2)s1` [PIK-93, reference compound], in the series with RSV strain A2, the pIC50 was 6.40.
Take `CCc1cc(CNc2cc(C)nc3c(-c4ccc5c(c4)c(C)nn5C)c(C)nn23)ccn1` [Example 6, 3-(1,3-dimethyl-1H-indazol-5-yl)-2,5-dimethyl-N-[(2-ethylpyridin-4-yl)methyl]pyrazolo[1,5-a]pyrimidin-7-amine]: the CC50 in series [1] amounted to 160 µM. Moreover, in the series with RSV strain A2, the “SI (CC50/IC50)” value is recorded as 3200 and the negative-log IC50 (pIC50) was 7.30.
The like results for `COc1ccc(-c2c(C)nc3c(NCc4ccncc4)cc(C)nn23)cc1OC` [Example 1, 3-(3,4-dimethoxyphenyl)-2,6-dimethyl-N-(pyridin-4-ylmethyl)imidazo[1,2-b]pyridazin-8-amine] were, in that order, 60 µM, 2000 and 7.52.
Turning to `COc1ccc(-c2c(C)nn3c(NCc4ccc(C)nc4)cc(C)nc23)cc1OC` [Example 29, 3-(3,4-dimethoxyphenyl)-2,5-dimethyl-N-[(6-methyl-3-pyridyl)methyl]pyrazolo[1,5-a]pyrimidin-7-amine], the cytotoxic concentration (CC50) in series [1] (HEp-2 cells) worked out at 60 µM. Moreover, in the series with RSV strain A2, the “SI (CC50/IC50)” value is 150 and the negative-log IC50 (pIC50) is 7.40.
`Cc1cc(NCc2ccncc2)c2nc(C)c(-c3ccc4c(c3)c(C)nn4C)n2n1` [Example 61, 3-(1,3-dimethyl-1H-indazol-5-yl)-2,6-dimethyl-N-(pyridin-4-ylmethyl)imidazo[1,2-b]pyridazin-8-amine]: the CC50 in series [1] amounted to 18 µM. In the series on RSV [2], the “inhibition of cell-associated (CA) RSV yield” value is reported as “approximately 1 log10” and the “inhibition of extracellular (EX) RSV yield” value is recorded as “approximately 1 log10”. For the same compound, the “time dependency of inhibition of RSV yield” value in the series with RSV [3] is given as “time-independent inhibition of RSV yield”. In addition, in the series on RSV strain A2, the “SI (CC50/IC50)” value was 514 and the pIC50 was 7.47.
Consider `COc1ccc(-c2c(C)nn3c(NCc4ccc(S(N)(=O)=O)cc4)nc(C)nc23)cc1OC` [Example 45, 4-[[[8-(3,4-dimethoxyphenyl)-2,7-dimethylpyrazolo[1,5-a][1,3,5]triazin-4-yl]amino]methyl]benzenesulfonamide], for which the half-maximal cytotoxic concentration (CC50) in series [1] is greater than 500 µM. Further, in the series on RSV strain A2, the “SI (CC50/IC50)” value was greater than 7143 and the pIC50 was 7.15.
The like results for `Cc1cc(NCc2ccncc2)n2nc(C)c(-c3ccc4c(c3)c(C)nn4C)c2n1` [Example 68, 3-(1,3-dimethyl-1H-indazol-5-yl)-2,5-dimethyl-N-(pyridin-4-ylmethyl)pyrazolo[1,5-a]pyrimidin-7-amine] were, in that order, 40 µM, 1000 and 7.40.
Regarding `COc1ccc(-c2c(C)nn3c(NCc4ccncc4)nc(C)nc23)cc1OC` [Example 38, 8-(3,4-dimethoxyphenyl)-2,7-dimethyl-N-(4-pyridylmethyl)pyrazolo[1,5-a][1,3,5]triazin-4-amine], in series [1], the cytotoxic concentration (CC50) worked out at 60 µM. Besides, in the series on RSV strain A2, the “SI (CC50/IC50)” value was 667 and the pIC50 is 7.05.
For `COc1ccc(-c2c(C)nn3c(NCc4cccc(S(C)(=O)=O)c4)cc(C)nc23)cc1OC` [Example 25, 3-(3,4-dimethoxyphenyl)-2,5-dimethyl-N-[(3-methylsulfonylphenyl)methyl]pyrazolo[1,5-a]pyrimidin-7-amine], in series [1], the half-maximal cytotoxic concentration (CC50) was greater than 500 µM. Besides, in the series with RSV [2], the “inhibition of cell-associated (CA) RSV yield” value is “approximately 1 log10” and the “inhibition of extracellular (EX) RSV yield” value was “approximately 1 log10”. The “time dependency of inhibition of RSV yield” value in the series on RSV [3] is recorded as “time-independent inhibition of RSV yield”. In the series with RSV strain A2, the “SI (CC50/IC50)” value is given as greater than 25000 and the negative logarithm of the IC50 (pIC50) is 7.70.
As to `Cc1cc(CCCOc2c(C)cc(-c3noc(C(F)(F)F)n3)cc2C)on1` [Pleconaril, reference compound], the half-maximal cytotoxic concentration (CC50) in series [1] came to 300 µM. In addition, in the series with RSV strain A2, the “SI (CC50/IC50)” value is 38 and the pIC50 was 5.10.
Regarding `Cc1cc(CNc2cc(C)nc3c(-c4ccc5c(c4)c(C)nn5C)c(C)nn23)ccn1` [Example 5, 3-(1,3-dimethyl-1H-indazol-5-yl)-2,5-dimethyl-N-[(2-methylpyridin-4-yl)methyl]pyrazolo[1,5-a]pyrimidin-7-amine], the CC50 in series [1] came to 18 µM. Also, in the series on RSV strain A2, the “SI (CC50/IC50)” value is given as 450 and the pIC50 was 7.40.
